Data: US20120021988A1, “METHODS FOR TREATING IMMUNE THROMBOCYTOPENIA” (priority 2007, published 2012)
Where “and” joins values, the source holds several entries; their conditions need not be identical. Identical values can stand only once. Ends that are not written are not given here.

Key:
human C1q = test: Reverse ELISA: inhibition of PAP immune complex binding to C1q coated plates; settings: for OD 405 nm: PAP pre-incubated with peptide or C1q one hour, C1q coated plates, lower OD = more inhibition, positive control 2.355
Source text: (§1) For this reason, a “reverse ELISA” technique has been used to assess binding of the Fc region to ligands that bind to immune complexed IgG Fc. In a reverse ELISA, the enzyme (e.g., HRP) is not covalently conjugated to the Fc portion of the secondary antibody. Rather, a preformed immune complex of peroxidase-rabbit (or mouse) anti-peroxidase IgG (“PAP” complex) is used. […] In the reverse ELISA system, an Fc CH2-CH3 cleft binding ligand (e.g., purified human C1q) was bound to microwell plates. In the absence of competitor, PAP complexes bound to the immobilized ligand and the reaction between HRP and its substrate produces a signal. This signal was reduced by polypeptides and compounds that inhibited PAP binding to the immobilized ligand.
PAP complexes were formed mixing 2 μl of rabbit anti-peroxidase (Sigma Chemicals, St. Louis, Mo.; Cat. No. P7899) with 50 μl of peroxidase (Sigma-Aldrich, Cat. No. P6782) in 1 ml distilled water. PAP (100 μl) were pre-incubated with 100 μl of peptide for one hour, 100 μl were pre-incubated with 100 μl of peptide or human C1q (Quidel Corp., San Diego, Calif.) for one hour. The C1q/PAP and peptide/PAP mixtures (100 μl) were incubated with C1q coated plates for 30 minutes. After washing, plates were incubated with ATBS (Quidel Corp.) for 15 minutes and read at 405 nm.

FcγIIIa = test: FcγR reverse ELISA: inhibition of PAP immune complex binding (Table 2); settings: PAP/peptide mixture on FcγR coated plates; positive control 1.588
Source text: as §1
(§2) Once the reverse ELISA protocol was established using the C1q assay, the assay was redesigned using FcγIIa, FcγIIb and FcγIII in place of C1q. Highly purified FcγIIa, FcγIIb and FcγIII (R&D Systems, Minneapolis, Minn.) were immunoadsorbed onto plastic microwells. After optimizing the FcγR reverse ELISA system, simple competitive inhibition experiments using polypeptides provided herein were conducted to investigate their ability to inhibit binding of immune complexes to purified FcγR.
(§3) Falcon microtiter plates were coated with 1:10 dilutions of highly purified FcγIIa, FcγIIb and FcγIII and incubated for 24 hours. The plates were washed and then blocked with 5×BSA blocking solution (Alpha Diagnostic International, San Antonio, Tex.) for 24 hours. PAP immune complexes were formed as described in Example 1. PAP (100 μl) were pre-incubated with 100 μl of peptide for one hour. PAP/peptide mixtures were added to the FcγR coated plates and incubated for one hour. After washing, plates were incubated with ABTS substrate (Quidel Corp.) for 15 minutes and read at 405 nm.

FcγIIa (R131 allele) = test: as above; settings: PAP/peptide mixture on FcγR coated plates; positive control 1.599
Source text: as §1, §2, §3

FcγIIb = test: as above; settings: PAP/peptide mixture on FcγR coated plates; positive control 1.394
Source text: as §1, §2, §3

mice having induced ITP = test: In vivo treatment of ITP induced by rabbit anti-platelet antibody, platelet counting by flow cytometry; design: species or system CD-1 mice; settings: for Platelet counts, individual mice: intraperitoneal, 24 hours; for Platelet counts, mean: 3 mice, ITP alone mean 170.7, Nil 1016; for Effect on induced ITP: first experiment, Table 4, 10× and 100× molar
Method: Mice: CD-1 mice approximately 6-8 weeks of age were obtained from Charles River (Montreal). The animals were housed 3-5 per cage in filter-topped cages. The temperature and relative humidity were maintained at […] and 35-70%, respectively, and a 12 hour light/dark cycle was used. The mice were fed rodent chow and water ad libitum.
Anti-platelet antibodies to induce ITP: A rabbit anti-platelet antibody (Inter-Cell Technologies, Inc., Jupiter, Fla.; Cat. No. A31440) was used to induce ITP. Each mouse received 10 μl antibody-containing serum, diluted with 190 μl PBS for injection, such that the final injection volume was 200 μl for all groups injected with anti-platelet antibody.
On the day of use, one vial of rabbit anti-platelet antibody was removed from the freezer, placed in a 22° C. water bath, and shaken. The tube was checked every 30 seconds, and when it was completely thawed it was placed in a microcentrifuge and centrifuged at 10,000×g (11,000 rpm) for 10 minutes at 4° C. The supernatant fluid was transferred to a new tube and the pellet was discarded. The supernatant was placed on ice until used or diluted, as appropriate. Unused portions of the sera were discarded.
Therapeutic treatment of ITP: IVIg was used as a standard control treatment for the ITP induced by the rabbit anti-platelet antibody. The IVIg was Gamimmune® N, 10%. Treatment with IVIg consisted of an intraperitoneal injection of 50 mg (500 μl) IVIg, a dose that was equivalent to a dose of 2,000 mg/kg body weight.
Platelet enumeration: All mice were bled via the saphenous vein. 50 μL of blood were collected into 450 μL PBS/1% EDTA. The blood was further diluted in PBS/1% EDTA. Platelets were enumerated by flow cytometry with a Guava microcapillary cytometer (Guava EasyCyteMini, Guava Technologies, Inc., Hayward, Calif.), using forward scatter (FSC) versus side scatter (SSC) to gate platelets.
Peptides used to inhibit ITP: Peptides having the amino acid sequences set forth in SEQ ID NO:2 ([…]), SEQ ID NO:20 ([…]), and a control peptide in which Trp7, Val13 and Trp14 of SEQ ID NO:20 were replaced by alanines ([…]; SEQ ID NO:57) were tested for their ability to inhibit ITP. Alanine substation of Val13 and Trp14 causes a decrease in binding affinity (measured by ΔΔG, where G=Gibbs Energy) of greater than 1,000 fold.
Peptides were stored at −20° C. until the day of use. On the day of use, peptides were removed from the freezer, placed in a 22° C. water bath, shaken, and checked every 30 seconds for thawing. When thawed, the peptides were placed on ice until use. For samples that received a 10× dose of peptide, the following were sequentially added to a 1.5 ml polypropylene Eppendorf tube: 623 μl PBS (pH 7.22), 35 μL rabbit anti-plaletet IgG, and 42 μl peptide, with mixing after each addition. For samples having a 100× dose of peptide, the following were added sequentially to a 1.5 ml polypropylene Eppendorf tube: 245 μl PBS (pH 7.22), 35 μL rabbit anti-plaletet IgG, and 420 μl peptide, with mixing after each addition. The peptides were incubated for at least 30 minutes at 22° C. prior to injection into mice. (A 15 minute incubation in the laboratory, transport of the mixtures to the Vivarium, and injection took roughly an additional 30 minutes.)
The final volume of each peptide mixture was 700 μL, which was sufficient for injection of 3 mice (200 μl/mouse, plus 100 μl to cover dead volume). For the 10× dose/mouse of peptide, 12 μg of peptide (12 μl of 1 mg/ml solution) was mixed with 100 μg of the rabbit anti-platelet IgG (10 μl of 10 mg/ml solution). The volume of 700 μl was about 3.5× the volume injected per mouse (200 μl). To obtain the dose of peptide and rabbit IgG for the 700 μl final volume, dose of peptide or Rabbit IgG per mouse was multiplied by 3.5 (e.g., 12 μl peptide/mouse×3.5=42 μl, 10 μl Rabbit IgG/mouse×3.5=35 μl). PBS (623 μl, pH 7.22) was added to make up the final volume 700 μl. […]

[1] = molecular target: PAP complex: preformed immune complex of peroxidase and rabbit anti-peroxidase IgG (horseradish) (UniProt P00433); test: reverse ELISA competition: PAP pre-incubated with peptide, then on plate coated with FcγIIb; signal is PAP left bound to the receptor
Chain of UniProt P00433 (P00433 31-338, one chain of several): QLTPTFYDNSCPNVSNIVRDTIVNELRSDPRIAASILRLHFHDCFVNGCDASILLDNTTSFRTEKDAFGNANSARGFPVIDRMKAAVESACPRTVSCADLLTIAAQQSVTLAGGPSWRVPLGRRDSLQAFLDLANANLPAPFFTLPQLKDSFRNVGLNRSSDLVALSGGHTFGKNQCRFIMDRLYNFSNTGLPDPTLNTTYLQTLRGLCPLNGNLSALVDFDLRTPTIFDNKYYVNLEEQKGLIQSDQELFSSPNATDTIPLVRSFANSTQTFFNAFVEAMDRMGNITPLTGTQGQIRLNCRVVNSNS

[2] = molecular target: PAP complex: preformed immune complex of peroxidase and rabbit anti-peroxidase IgG (horseradish) (UniProt P00433); test: reverse ELISA competition: PAP pre-incubated with peptide, then on plate coated with FcγIIIa; signal is PAP left bound to the receptor
[3] = molecular target: PAP complex: preformed immune complex of peroxidase and rabbit anti-peroxidase IgG (horseradish) (UniProt P00433); test: reverse ELISA competition: PAP pre-incubated with peptide, then on plate coated with FcγIIa (R131 allele); signal is PAP left bound to the receptor
[4] = molecular target: PAP complex: preformed immune complex of peroxidase and rabbit anti-peroxidase IgG (horseradish) (UniProt P00433); test: reverse ELISA competition: PAP pre-incubated with peptide, then on C1q-coated plate; signal is PAP left bound to immobilised human C1q (lower = more inhibition)
[5] = ITP + 10X molar amount of peptide
[6] = ITP + 100X molar amount of peptide

Molecule	OD 405 nm (human C1q)	OD405 FcγIIIa (FcγIIIa)	OD405 FcγIIa (R131 allele) (FcγIIa (R131 allele))	OD405 FcγIIb (FcγIIb)	OD405 [1]	OD405 [2]	OD405 [3]	OD 405 nm [4]	further results
APPCAFHLGELVWCT (cysteine pairing not given here) [SEQ ID NO:18]	0.983	0.880	0.605	0.380					
APPCARHLGELVWCT (cysteine pairing not given here) [SEQ ID NO:16]	0.567	0.709	0.956	0.768					Inhibition of C1q binding (ranking in words) (human C1q; summary of Table 1): next best result
APPCAWHLGELVWCT (cysteine pairing not given here) [SEQ ID NO:14]	1.148	0.530	0.658	0.562					
APPDCAAHLGELAACT [SEQ ID NO:57, reference compound]									Platelet counts, individual mice (mice having induced ITP; ITP + 10X molar amount of peptide, listed as CP): 1.99e+11 L⁻¹ and 1.91e+11 L⁻¹ and 1.43e+11 L⁻¹; Platelet counts, mean (mice having induced ITP; [5]): 1.777e+11 L⁻¹; Platelet counts, individual mice (mice having induced ITP; ITP + 100X molar amount of peptide, listed as CP): 1.55e+11 L⁻¹ and 1.6e+11 L⁻¹ and 1.79e+11 L⁻¹; Platelet counts, mean (mice having induced ITP; [6]): 1.647e+11 L⁻¹; Effect on induced ITP (mice having induced ITP): no effect
Asp-Cys-Ala-Phe-His-Leu-Gly-Glu-Leu-Val-Trp-Cys-Thr (DCAFHLGELVWCT) [SEQ ID NO:3]	0.859	0.810	0.660	0.510					
Asp-Cys-Ala-Trp-His-Leu-Gly-Glu-Leu-Val-Trp-Cys-Thr [SEQ ID NO:2]	1.100	0.741	0.561	0.532					Platelet counts, individual mice (mice having induced ITP; ITP + 10X molar amount of peptide, listed as BP): 1.63e+11 L⁻¹ and 1.17e+11 L⁻¹ and 2.33e+11 L⁻¹; Platelet counts, mean (mice having induced ITP; [5]): 1.71e+11 L⁻¹; Platelet counts, individual mice (mice having induced ITP; ITP + 100X molar amount of peptide, listed as BP): 1.55e+11 L⁻¹ and 1.25e+11 L⁻¹ and 1.94e+11 L⁻¹; Platelet counts, mean (mice having induced ITP; [6]): 1.58e+11 L⁻¹; Effect on induced ITP (mice having induced ITP): no effect
APPCAFHLGELVWCT [Peptide … (SEQ ID NO:18)]					0.38 OD405	0.88 OD405	0.605 OD405	0.983 OD 405 nm	
DCAFHLGELVWCT [Peptide … (SEQ ID NO:3)]					0.51 OD405	0.81 OD405	0.66 OD405	0.859 OD 405 nm	
APPCARHLGELVWCT [Peptide … (SEQ ID NO:16)]					0.768 OD405	0.709 OD405	0.956 OD405	0.567 OD 405 nm	
APPCAWHLGELVWCT [Peptide … (SEQ ID NO:14)]					0.562 OD405	0.53 OD405	0.658 OD405	1.15 OD 405 nm	
